Assay results taken from article PMC8921294, “Inhibition of mitochondrial LonP1 protease by allosteric blockade of ATP binding and hydrolysis via CDDO and its derivatives” (The Journal of Biological Chemistry, 2022).

What was measured:
[1] = biological target: T1, LonP1^R721G (Homo sapiens, UniProt P36776, R721G); assay: NADH-coupled ATPase assay, CODAS mutant LonP1^R721G; format: biochemical; conditions: compound 20 μM
T1 construct: hexa-histidine (N); made in house; host or cells: Rosetta 2 E. coli
T1 sequence (P36776 68-959 R721G): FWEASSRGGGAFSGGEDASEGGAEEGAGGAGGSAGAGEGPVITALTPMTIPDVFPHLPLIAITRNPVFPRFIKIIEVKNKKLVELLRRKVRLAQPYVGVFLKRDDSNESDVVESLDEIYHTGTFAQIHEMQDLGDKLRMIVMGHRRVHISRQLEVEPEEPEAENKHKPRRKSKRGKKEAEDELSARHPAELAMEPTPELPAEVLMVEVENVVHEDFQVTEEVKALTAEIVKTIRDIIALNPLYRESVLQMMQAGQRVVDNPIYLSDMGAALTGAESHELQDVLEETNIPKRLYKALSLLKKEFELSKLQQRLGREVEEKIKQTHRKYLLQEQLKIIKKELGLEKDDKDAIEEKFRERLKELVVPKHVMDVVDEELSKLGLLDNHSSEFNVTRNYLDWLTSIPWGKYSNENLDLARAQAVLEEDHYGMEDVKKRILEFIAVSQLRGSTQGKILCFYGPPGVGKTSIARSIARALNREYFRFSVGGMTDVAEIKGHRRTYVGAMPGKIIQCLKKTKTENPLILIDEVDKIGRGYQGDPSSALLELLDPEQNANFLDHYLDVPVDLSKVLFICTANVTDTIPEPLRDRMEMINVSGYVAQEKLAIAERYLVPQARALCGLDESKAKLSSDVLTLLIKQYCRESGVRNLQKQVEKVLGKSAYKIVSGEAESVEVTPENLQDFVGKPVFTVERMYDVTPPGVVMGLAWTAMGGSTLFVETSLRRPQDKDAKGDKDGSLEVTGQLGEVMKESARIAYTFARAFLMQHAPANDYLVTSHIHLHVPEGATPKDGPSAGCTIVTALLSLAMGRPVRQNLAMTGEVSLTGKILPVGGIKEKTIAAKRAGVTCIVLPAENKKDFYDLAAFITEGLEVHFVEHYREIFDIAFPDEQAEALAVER
Description: Figure 2 The ATPase activity of wild-type LonP1^WTis blocked by CDDO-Me and CDDO-anhydride by noncompetitive and competitive inhibition, respectively, whereas the CODAS mutant LonP1^R721GATPase is resistant to inhibition. ATPase activities were measured using an NADH-coupled ATPase assay. Wild type and mutant LonP1 proteins (400 nM) were pre-incubated with or without compound for 30 min at room temperature. A and E, LonP1^WT, and (H and I) comparison of LonP1^WT and LonP1^R721G. ATP was titrated and its hydrolysis was measured over 5 min (mean ± S.D., N ≥ 2). B and F, double-reciprocal Lineweaver–Burk plots (mean ± S.D., N ≥ 2). C and G, determination of Ki (mean ± S.D., N ≥ 2). D, determination of αKi (mean ± S.D., N ≥ 2). C, G and H. mean values obtained from linear regression data. CDDO, 2-cyano-3,12-dioxooleana-1,9(11)-dien-28-oic acid.
ATPase reactions (200 μl total) were performed in 96-well plates at room temperature. LonP1 (400 nM monomer) was preincubated with DMSO (1–2%) vehicle control or CDDO derivatives in buffer (50 mM HEPES-KOH pH 7.5, 5 mM magnesium acetate, 75 mM potassium acetate) for 30 to 45 min at room temperature or 30 °C. […] The change in NADH absorbance at 340 nm was monitored in Spectramax plate reader for 5 min to obtain reaction velocities. […]

[2] = tested on: heme oxygenase 1 (HO-1); assay: HO-1 stabilisation in HeLa ρ^0 cells (immunoblot); format: cell-based, human; conditions: 7 h
Description: LonP1 knockdown stabilized HO-1 protein, whereas LonP1 overexpression decreased HO-1 protein (Fig. 4, E and F).
HeLa cells devoid of mitochondrial DNA (HeLa ρ^0) and LCL cells were generated as described previously ([50]). DMEM, RPMI, and fetal bovine serum were purchased from Sigma. All cells were grown with 5% CO2 at 37 °C. LCL cells were cultured in RPMI supplemented with 15% FBS. HeLa Rho 0 cells were cultured in high glucose DMEM (25 mM) (Sigma) supplemented with sodium pyruvate ([…]) and uridine ([…]). CDDO-Me was purchased from Cayman chemicals, and CDDO-AH was synthesized as described previously ([20]). HEK293 cells plated in 60 mm dishes at a confluency of 60 to 70% were transfected with Control or 3′UTR LonP1 siRNA using Lipofectamine 2000 (Invitrogen) and reduced serum OPTI MEM (Sigma) as described in the manufacturer’s protocol to knockdown LonP1, whereas adenoviral transduction was employed to overexpress LonP1. CDDO-Me and CDDO-anhydride were dissolved in DMSO and serially diluted in the respective complete medium and added to HeLa ρ^0 cells and were treated for 7 or 24 h.
Cells were harvested, centrifuged, and washed with PBS and proteins were extracted by adding the lysis buffer (50 mM Tris, [pH 7.5], 300 mM NaCl, and 0.5% Triton X-100) containing 2X Halt phosphatase and protease cocktail inhibitor (Thermo Scientific) for 20 min on ice. […]

Inhibition of LonP1^R721G ATPase compared with LonP1^WT [1] | SMILES | Concentration stabilising HO-1 [2]
showed resistance | CC1(C)CC[C@]2(C(=O)OC(=O)[C@]34CCC(C)(C)C[C@H]3[C@H]3C(=O)C=C5[C@@]6(C)C=C(C#N)C(=O)C(C)(C)[C@@H]6CC[C@@]5(C)[C@]3(C)CC4)CC[C@]3(C)[C@H](C(=O)C=C4[C@@]5(C)C=C(C#N)C(=O)C(C)(C)[C@@H]5CC[C@]43C)[C@@H]2C1 [CDDO-anhydride] | ≥ 0.25 µM
showed resistance | COC(=O)[C@]12CCC(C)(C)C[C@H]1[C@H]1C(=O)C=C3[C@@]4(C)C=C(C#N)C(=O)C(C)(C)[C@@H]4CC[C@@]3(C)[C@]1(C)CC2 [CDDO-Me] | ≥ 0.125 µM
